The source of these data is ChEMBL document CHEMBL4725244, “Immunomodulation-mediated anticancer activity of a novel compound from Brugmansia suaveolens leaves” (Bioorg Med Chem, 2020).

Data set [1] in a line: Immuno-modulation activity in human PBMC assessed as increase in cell proliferation at 10 uM after 48 hrs by MTT assay relative to control. Type of data set: functional. On the technique in general: Formazan colour is commonly taken as a measure of viable cells.
A short description of data set [2]: Immunomodulation-mediated anticancer activity against human MCF7 cells assessed as human PBMC-mediated inhibition of cancer cell viability at 10 uM pretreated with effector PBMC cells for 48 hrs followed by co-culturing of target cancer cells with PBMC at ratio of 1:10 and measured after 24 hrs by MTT assay (reference value: 5%). Type of data set: functional.

For another data set, the system named is A549. Description: Immunomodulation-mediated anticancer activity against human A549 cells assessed as human PBMC-mediated inhibition of cancer cell viability at 10 uM pretreated with effector PBMC cells for 48 hrs followed by co-culturing of target cancer cells with PBMC at ratio of 1:10 and measured after 24 hrs by […] (reference value: 5%). The data set is classed as functional. On the technique in general: An ELISA detects its analyte on a solid surface through an enzyme-linked reagent.

The nature of data set [3]: Immuno-modulation activity in human PBMC assessed as increase in IFNgamma secretion at 10 uM after 48 hrs by ELISA relative to control. The data set is classed as functional.
The nature of data set [4]: Immuno-modulation activity in human PBMC assessed as increase in IL-2 secretion at 10 uM after 48 hrs by ELISA relative to control. Type of data set: functional.
Data set [5] in a line: Immunomodulation-mediated anticancer activity against human MCF7 cells assessed as human PBMC-mediated increase in ROS generation at 10 uM pretreated with effector PBMC cells for 48 hrs followed by co-culturing of target cancer cells with PBMC at ratio of 1:10 for 6 hrs by DCFH-DA staining based fluorometric analysis (reference value: 7%). The data set is classed as functional.

Data set [6] is described as follows: Immunomodulation-mediated anticancer activity against human MCF7 cells assessed as human PBMC-mediated decrease in mitochondrial membrane potential at 10 uM pretreated with effector PBMC cells for 6 hrs followed by co-culturing of target cancer cells with PBMC at ratio of 1:10 for 24 hrs by rhodamine 123 staining based fluorometric analysis (reference value: 5%). Type of data set: functional.

Data set [7] is described as follows: Immunomodulation-mediated anticancer activity against human MCF7 cells assessed as human PBMC-mediated cell cycle arrest by measuring proportion of cells at G0G1 phase at 10 uM pretreated with effector PBMC cells for 48 hrs followed by co-culturing of target cancer cells with PBMC at ratio of 1:10 for 24 hrs by propidium iodide staining based flow cytometry (reference value: 64.6%). Type of data set: functional.

Data set [8] can be described thus: Cytotoxicity against human MCF7 cells assessed as reduction in cell viability at 5 to 20 uM measured after 24 hrs by MTT assay relative to control. Type of data set: cell-based. The settings on record: dose 5-20 µM, read-out: INH.
The nature of data set [9]: Immunomodulation-mediated anticancer activity against human MCF7 cells assessed as human PBMC-mediated inhibition of cancer cell viability at 10 uM pretreated with effector PBMC cells for 48 hrs followed by co-culturing of target cancer cells with PBMC at ratio of 1:2.5 to 1:20 and measured after 24 hrs by MTT assay. The data set is classed as functional.
A short description of data set [10]: Immunomodulation-mediated anticancer activity against human MCF7 cells assessed as human PBMC-mediated cell cycle arrest by measuring proportion of cells at G2M phase at 10 uM pretreated with effector PBMC cells for 48 hrs followed by co-culturing of target cancer cells with PBMC at ratio of 1:10 for 24 hrs by propidium iodide staining based flow cytometry (reference value: 10.5%). Type of data set: functional.

The nature of data set [11]: Immunomodulation-mediated anticancer activity against human MCF7 cells assessed as human PBMC-mediated cell cycle arrest by measuring proportion of cells at S phase at 10 uM pretreated with effector PBMC cells for 48 hrs followed by co-culturing of target cancer cells with PBMC at ratio of 1:10 for 24 hrs by propidium iodide staining based flow cytometry (reference value: 19.6%). Type of data set: functional.

Data set [12] can be described thus: Immunomodulation-mediated anticancer activity against human MCF7 cells assessed as human PBMC-mediated cell cycle arrest by measuring proportion of cells at subbG1 phase at 10 uM pretreated with effector PBMC cells for 48 hrs followed by co-culturing of target cancer cells with PBMC at ratio of 1:10 for 24 hrs by propidium iodide staining based flow cytometry (reference value: 4.8%). Type of data set: functional. (In general: In flow cytometry, cells or beads pass a laser one at a time.)

Data set [13] in a line: Immunomodulation-mediated anticancer activity against human MCF7 cells assessed as human PBMC-mediated cell cycle arrest by measuring increase in proportion of cells at subG1 phase at 10 uM pretreated with effector PBMC cells for 48 hrs followed by co-culturing of target cancer cells with PBMC at ratio of 1:10 for 24 hrs by propidium iodide staining based flow cytometry relative to control. The data set is classed as functional.

A further data set deals with PBMC. The experiment in a line: Immuno-modulation activity in human PBMC assessed as increase in cell proliferation at 20 uM after 48 hrs by MTT assay. Type of data set: functional, tissue-based.

SMILES strings stand for the structures. Activity calls are given as the source filed them. No cut-off for these calls is given here. Some results are limits rather than exact numbers.

For the molecule `COc1ccc(OC)c2c1OC(=O)CC[C@H](O)C2=O`, the Activity in [1] is recorded as 92%; in [5], 79%; in data set [7] it was 51.8%; in data set [9] it was “<=70%”; in [10] it was 59%; in data set [11], 13.2%. In addition, the Activity in data set [12] was 28.4%. The inhibition (commonly the percentage by which the read-out fell short of the control) at 10 µM in data set [2] turned out to be 67%; in the data set with A549, 32%; in [6], 66%. Moreover, the “fold change (FC)” value was determined as 3 in data set [3], 3 in [4] and 5 in data set [13]. For the same molecule, the cytotoxicity at 24 h, up to 20 µM in [8] was less than 30%. In the data set with PBMC, the outcome was Active.
